From US8841077B2, “Biomarkers for amyotrophic lateral sclerosis and methods using the same” (Massachusetts General Hospital, priority 2006, dated 2014)

Tests used:
[1] = Metabolomics demographic study of plasma from 270 healthy volunteers of various ages (Table 11); assay type: in vivo, human; conditions: normal adults
[2] = Caffeine and paraxanthine in plasma of ALS patients vs peripheral neuropathy or myopathy patients (Examples 6, 7; Tables 12, 13); assay type: in vivo, human
Procedure: All research participants provided informed consent. A board-certified neurologist reviewed and confirmed diagnosis for all participants. Data on gender, age, weight, and medications was collected. For participants with ALS, date and site of symptom onset, date of diagnosis, and family history of ALS was recorded.

[3] = Caffeine and caffeine metabolites in plasma of ALS patients vs healthy control subjects (Examples 4, 5; Tables 9, 10)
Procedure: Metabolomic analysis of two independent ALS studies was carried out to assess the changes of metabolite levels in plasma from ALS patients relative to healthy control subjects. Thirty-one healthy control volunteers and 31 participants with ALS enrolled in Study 1. Study 2 was comprised of ninety-nine participants with ALS and 94 healthy volunteers. All research participants provided informed consent. A board-certified neurologist reviewed and confirmed diagnosis for all participants. Data on gender, age, weight, and medications was collected. For participants with ALS, date and site of symptom onset, date of diagnosis, and family history of ALS was recorded. Healthy control subjects were defined by the absence of a known neurological disorder.
A measure of caffeine clearance rate is reflected in the ratio of caffeine metabolites to caffeine.

Row | Paraxanthine/Caffeine (P/C) Ratio ([1]; age 25-35) | Paraxanthine/Caffeine (P/C) Ratio ([1]; age 36-50) | Paraxanthine/Caffeine (P/C) Ratio ([1]; age 51-65) | Paraxanthine/Caffeine Ratio ([2]; ALS) | Paraxanthine/Caffeine Ratio ([2]; Myopathy) | Paraxanthine/Caffeine Ratio ([2]; PN) | Theophylline/Caffeine (T/C) Ratio ([3]; ALS subjects) | Theophylline/Caffeine (T/C) Ratio ([3]; Control subjects) | SMILES
1 | 1.1467 | 1.0358 | 0.7105 | 0.7389 | 0.4900 | 0.0294 |  |  | Cn1c(=O)[nH]c2ncn(C)c2c1=O [Paraxanthine, 1-7-dimethylxanthine]
2 |  |  |  |  |  |  | 1.3684 | 0.8857 | Cn1c(=O)c2[nH]cnc2n(C)c1=O [Theophylline]
